Reference: the CheMixHub viscosity set

Assay: xn = mol fraction of the nth substance listed

CCCCCCCCCCCCO + C=CC(=O)OC
viscosity [mPa·s], 101.3 kPa
Settings | x2 = 0.1127 | x2 = 0.3078 | x2 = 0.3842 | x2 = 0.5147 | x2 = 0.6206 | x2 = 0.7884 | x2 = 0.8506 | x2 = 0.9093 | x2 = 0.9554 | x2 = 0.9794
298.15 K | 11.57 | 5.722 | 4.4 | 2.703 | 1.891 | 0.992 | 0.785 | 0.629 | 0.53 | 0.484
308.15 K | 8.309 | 4.391 | 3.385 | 2.157 | 1.515 | 0.833 | 0.668 | 0.549 | 0.473 | 0.438

CCCCCCCCN + CCCCN(CCCC)CCCC
viscosity [mPa·s], 101 kPa
Settings | x2 = 0.1005 | x2 = 0.202 | x2 = 0.3961 | x2 = 0.5022 | x2 = 0.5949 | x2 = 0.7991 | x2 = 0.8964
303.15 K | 1.149 | 1.138 | 1.126 | 1.125 | 1.127 | 1.14 | 1.151
313.15 K | 0.9719 | 0.9612 | 0.9507 | 0.9506 | 0.9532 | 0.97 | 0.9821

O.O.O.O.O.O=S(=O)([O-])[S-].[Na+].[Na+] + N#C[S-].[Na+]
101.33 kPa, x2 = 0.3
Settings | viscosity [mPa·s]
308 K | 30.26
313 K | 23.84
318 K | 19.42
323 K | 15.54

Cc1ccc(C)cc1 + c1ccccc1
Settings | viscosity [mPa·s]
293.15 K, 101.33 kPa, x2 = 0.2202 | 0.631
293.15 K, 101.33 kPa, x2 = 0.42 | 0.623
293.15 K, 101.33 kPa, x2 = 0.7393 | 0.627
293.15 K, 101.33 kPa, x2 = 0.8207 | 0.628
298 K, 101.3 kPa, x2 = 0.2099 | 0.603
298 K, 101.3 kPa, x2 = 0.3766 | 0.596
298 K, 101.3 kPa, x2 = 0.5839 | 0.596
298 K, 101.3 kPa, x2 = 0.7205 | 0.596
298 K, 101.3 kPa, x2 = 0.8802 | 0.599
303 K, 101 kPa, x1 = 0.1002 | 0.5613
303 K, 101 kPa, x1 = 0.2018 | 0.5603
303 K, 101 kPa, x1 = 0.3012 | 0.5605
303 K, 101 kPa, x1 = 0.397 | 0.5611
303 K, 101 kPa, x1 = 0.4983 | 0.5617
303 K, 101 kPa, x1 = 0.5959 | 0.5628
303 K, 101 kPa, x1 = 0.7005 | 0.5641
303 K, 101 kPa, x1 = 0.8019 | 0.5666
303 K, 101 kPa, x1 = 0.8988 | 0.5684
303.15 K, 101.33 kPa, x2 = 0.2202 | 0.557
303.15 K, 101.33 kPa, x2 = 0.42 | 0.55
303.15 K, 101.33 kPa, x2 = 0.7393 | 0.55
303.15 K, 101.33 kPa, x2 = 0.8207 | 0.553
313 K, 101 kPa, x1 = 0.1002 | 0.4975
313 K, 101 kPa, x1 = 0.2018 | 0.4982
313 K, 101 kPa, x1 = 0.3012 | 0.4993
313 K, 101 kPa, x1 = 0.397 | 0.502
313 K, 101 kPa, x1 = 0.4983 | 0.5024
313 K, 101 kPa, x1 = 0.5959 | 0.5039
313 K, 101 kPa, x1 = 0.7005 | 0.5071
313 K, 101 kPa, x1 = 0.8019 | 0.509
313 K, 101 kPa, x1 = 0.8988 | 0.5122
313.15 K, 101.33 kPa, x2 = 0.2202 | 0.497
313.15 K, 101.33 kPa, x2 = 0.42 | 0.493
313.15 K, 101.33 kPa, x2 = 0.7393 | 0.49
313.15 K, 101.33 kPa, x2 = 0.8207 | 0.485
318 K, 101.3 kPa, x2 = 0.1977 | 0.4856
318 K, 101.3 kPa, x2 = 0.3756 | 0.4775
318 K, 101.3 kPa, x2 = 0.5821 | 0.4739
318 K, 101.3 kPa, x2 = 0.7212 | 0.472
318 K, 101.3 kPa, x2 = 0.8882 | 0.4718
323 K, 101 kPa, x1 = 0.1002 | 0.4435
323 K, 101 kPa, x1 = 0.2018 | 0.4443
323 K, 101 kPa, x1 = 0.3012 | 0.4462
323 K, 101 kPa, x1 = 0.397 | 0.4502
323 K, 101 kPa, x1 = 0.4983 | 0.4513
323 K, 101 kPa, x1 = 0.5959 | 0.4527
323 K, 101 kPa, x1 = 0.7005 | 0.4554
323 K, 101 kPa, x1 = 0.8019 | 0.4585
323 K, 101 kPa, x1 = 0.8988 | 0.4596
323.15 K, 101.33 kPa, x2 = 0.2202 | 0.45
323.15 K, 101.33 kPa, x2 = 0.42 | 0.447
323.15 K, 101.33 kPa, x2 = 0.7393 | 0.442
323.15 K, 101.33 kPa, x2 = 0.8207 | 0.435

Cc1ccc(C)cc1 + CC#N
308.15 K, 101 kPa
Settings | viscosity [mPa·s]
x1 = 0.1008 | 0.3403
x1 = 0.2001 | 0.3636
x1 = 0.2981 | 0.3915
x1 = 0.3964 | 0.4147
x1 = 0.4985 | 0.4387
x1 = 0.5923 | 0.4603
x1 = 0.6937 | 0.4799
x1 = 0.7907 | 0.4989
x1 = 0.9051 | 0.5199

O=Cc1ccccc1 + CC(C)CCO
298.1 K, 101 kPa
Settings | viscosity [mPa·s]
x1 = 0.1103 | 2.842
x1 = 0.202 | 2.39
x1 = 0.2988 | 2.057
x1 = 0.3333 | 1.959
x1 = 0.4051 | 1.809
x1 = 0.4839 | 1.67
x1 = 0.6101 | 1.51
x1 = 0.6944 | 1.44
x1 = 0.7979 | 1.373
x1 = 0.8987 | 1.34

O=C(O)c1ccccc1C(=O)O + CCCO
viscosity [mPa·s]
Settings | 308.15 K | 313.15 K | 318.15 K | 323.15 K
101 kPa, x1 = 0.02 | – | 1.632 | – | –
101 kPa, x1 = 0.027 | – | 1.732 | – | –
101 kPa, x1 = 0.0369 | – | 1.887 | – | –
101.33 kPa, x1 = 0.02 | 1.78 | 1.632 | 1.457 | 1.302
101.33 kPa, x1 = 0.0369 | 2.133 | 1.887 | 1.672 | 1.488

CC(O)C(C)O (configuration not stated) + C[N+](C)(C)CCO.[Cl-]
viscosity [mPa·s], 101.3 kPa
Settings | 303.15 K | 308.15 K | 313.15 K | 318.15 K | 323.15 K
x2 = 0.2 | 71.79 | 53.5 | 40.72 | 31.73 | 25.22
x2 = 0.25 | 84.88 | 63.93 | 48.73 | 38.16 | 30.43

CCCCCCCCN + CCN(CC)CC
viscosity [mPa·s], 101.33 kPa
Settings | x2 = 0.1056 | x2 = 0.2038 | x2 = 0.4151 | x2 = 0.4978 | x2 = 0.6055 | x2 = 0.8063 | x2 = 0.9007
303.15 K | 1.021 | 0.9064 | 0.7044 | 0.6396 | 0.5641 | 0.4488 | 0.4031
313.15 K | 0.8659 | 0.7719 | 0.6062 | 0.5533 | 0.4916 | 0.3975 | 0.3611

CC(C)CCCC(C)CCCC(C)CCCCC(C)CCCC(C)CCCC(C)C (configuration not stated) + CC(C)O
viscosity [mPa·s], 101 kPa
Settings | x2 = 0.0621 | x2 = 0.218 | x2 = 0.4022
298.15 K | – | 19.65 | –
303.15 K | 18.75 | 15.45 | 13.05

CC(C)CCCC(C)CCCC(C)CCCCC(C)CCCC(C)CCCC(C)C (configuration not stated) + CCCCCC
viscosity [mPa·s]
Settings | 293.15 K | 298.15 K | 313.15 K
100 kPa, x1 = 0.235 | 1.91 | – | 1.36
100 kPa, x1 = 0.511 | 7.76 | – | 4.15
100 kPa, x1 = 0.743 | 17.5 | – | 8.25
101 kPa, x1 = 0.129 | 0.972 | – | 0.739
101 kPa, x1 = 0.268 | 2.45 | – | 1.63
101 kPa, x1 = 0.469 | 6.3 | – | 3.62
101 kPa, x1 = 0.5661 | – | 10.15 | –
101 kPa, x1 = 0.762 | 18.3 | – | 8.84
101.33 kPa, x1 = 0.129 | 0.972 | – | 0.739
101.33 kPa, x1 = 0.268 | 2.45 | – | 1.63
101.33 kPa, x1 = 0.469 | 6.3 | – | 3.62
101.33 kPa, x1 = 0.762 | 18.3 | – | 8.84

CC(=O)OCC[N+](C)(C)C.[Cl-] + CC(=O)CCC(=O)O
101 kPa, x2 = 0.75
Settings | viscosity [mPa·s]
293.15 K | 164.5
303.15 K | 85.88
313.15 K | 46.75
323.15 K | 31.58

COC(=O)OCC(F)(F)F + O=C1OCCO1
313.15 K, 100 kPa
Settings | viscosity [mPa·s]
x2 = 0.1011 | 0.826
x2 = 0.1994 | 0.92
x2 = 0.3006 | 1.03
x2 = 0.3997 | 1.142
x2 = 0.5004 | 1.264
x2 = 0.5989 | 1.39
x2 = 0.7023 | 1.524
x2 = 0.7988 | 1.652
x2 = 0.9 | 1.786

NCCO.O=CO + CC(C)(N)CO
viscosity [mPa·s], 100 kPa
Settings | x1 = 0.1475 | x1 = 0.2287 | x1 = 0.3157 | x1 = 0.409 | x1 = 0.5093 | x1 = 0.6175 | x1 = 0.7346
298.15 K | 170.6 | 165.1 | 148.3 | 126.5 | 107.4 | 84.75 | 64.21
303.15 K | 118.8 | 113 | 103.2 | 90.68 | 78.55 | 62.99 | 49.24
308.15 K | 82.33 | 79.18 | 74.33 | 66.23 | 58.35 | 47.99 | 38.25
313.15 K | 58.68 | 57.28 | 54.44 | 49.47 | 44.41 | 37.11 | 30.16
318.15 K | 42.89 | 42.1 | 40.82 | 37.69 | 34.31 | 29.35 | 24.25
323.15 K | 31.84 | 31.65 | 31.24 | 29.32 | 27.04 | 23.55 | 19.78
